According to patent US20110166112A1, “METHOD FOR STIMULATING PLATELET PRODUCTION” (Eisai, Inc., priority 2009, published 2011):

Test system: subjects with chronic ITP
Test: Combined 28-day and 6-month rollover studies of E5501: safety (TEAEs, serious TEAEs, thromboembolic events, neoplasms, liver toxicity, discontinuations)
Format: in vivo, human
Excerpt: Primary Endpoint: The primary endpoint was to assess the safety and tolerability to E5501, including AEs and clinical laboratory parameters, over the 6 additional months of treatment.
In this way, safety data reflect each subject's complete duration of exposure to E5501 starting with lead-in the previous study and continuing into the current study.
Following Protocol Amendment 4, the current study contained a flexible dose regimen; therefore, this study was considered to have an open-label, uncontrolled, single-arm design. […] This was the method used to assess safety. • Grouping method B was based on both treatment received and day 28 platelet response to study drug in Study the previous study. This was the method used for the analysis of efficacy for the FAS and the SE population.
Overall Adverse Events. […] The primary focus is on summary statistics for the entire safety population and provides an overall safety profile for E5501. The summary statistics for each group, e.g., lower ⅓, middle ⅓ and upper ⅓ average daily dose levels, is secondary and provides further safety information across the 3 dose levels.

[1] = Middle ⅓ dose (≧8.85-<13.5 mg), N=22
[2] = Safety Population, Middle ⅓ Mean Daily Dose Level (≧8.85-<13.5 mg)
[3] = Upper ⅓ dose (≧13.5-≦25.7 mg), N=20
[4] = combined studies, E5501-treated subjects overall
[5] = one subject, 5 mg/day, approximately 21 days after initiation, grade 2
[6] = one subject, 20 mg/day, approximately 164 days after initiation, grade 3

## O=C(Nc1nc(-c2cc(Cl)cs2)c(N2CCN(C3CCCCC3)CC2)s1)c1cnc(N2CCC(C(=O)O)CC2)c(Cl)c1 [E5501, 1-(3-chloro-5-{[4-(4-chlorothiophen-2-yl)-5-(4-cyclohexylpiperazin-1-yl)thiazol-2-yl]carbamoyl}pyridine-2-yl)piperidine-4-carboxylic acid]
[1]
  Vomiting, % of subjects: (9.1) %
  Vomiting, n of subjects: 2
  Withdrawal due to TEAE, % of subjects: (9.1) %
  Withdrawal due to TEAE, n of subjects: 2
Safety Population, Lower ⅓ Mean Daily Dose Level (2.5-<8.85 mg)
  Discontinuation in 501-CL-003, PC increase to ≧500,000/mm^3: 0 n
[2]
  Discontinuation in 501-CL-003, PC increase to ≧500,000/mm^3: 0 n
  Discontinuation in 501-CL-004, PC increase to ≧500,000/mm^3: 0 n
Safety Population, Upper ⅓ Mean Daily Dose Level (≧13.5-≦25.7 mg)
  Discontinuation in 501-CL-003, Adverse Event or SAE: 0 n
Total E5501, N=64
  Abdominal pain upper, % of subjects: (4.7) %
  Abdominal pain upper, n of subjects: 3
  Any TEAE, % of subjects: (96.9) %
  Any TEAE, n of subjects: 62
  Arthralgia, % of subjects: (14.1) %
  Arthralgia, n of subjects: 9
  Asthenia, % of subjects: (6.3) %
  Asthenia, n of subjects: 4
  Back pain, % of subjects: (9.4) %
  Back pain, n of subjects: 6
  Constipation, % of subjects: (4.7) %
  Constipation, n of subjects: 3
  Contusion, % of subjects: (18.8) %
  Contusion, n of subjects: 12
  Cough, % of subjects: (4.7) %
  Cough, n of subjects: 3
  Deaths, n of subjects: 0
  Diarrhoea, % of subjects: (14.1) %
  Diarrhoea, n of subjects: 9
  Dizziness, % of subjects: (7.8) %
  Dizziness, n of subjects: 5
  Dose interruption due to TEAE, % of subjects: (12.5) %
  Dose interruption due to TEAE, n of subjects: 8
  Dyspnoea, % of subjects: (9.4) %
  Dyspnoea, n of subjects: 6
  Ecchymosis, % of subjects: (6.3) %
  Ecchymosis, n of subjects: 4
  Epistaxis, % of subjects: (23.4) %
  Epistaxis, n of subjects: 15
  Fatigue, % of subjects: (34.4) %
  Fatigue, n of subjects: 22
  Gingival bleeding, % of subjects: (10.9) %
  Gingival bleeding, n of subjects: 7
  Headache, % of subjects: (32.8) %
  Headache, n of subjects: 21
  Insomnia, % of subjects: (7.8) %
  Insomnia, n of subjects: 5
  Migraine, % of subjects: (4.7) %
  Migraine, n of subjects: 3
  Mouth haemorrhage, % of subjects: (3.1) %
  Mouth haemorrhage, n of subjects: 2
  Nausea, % of subjects: (9.4) %
  Nausea, n of subjects: 6
  Pain in extremity, % of subjects: (9.4) %
  Pain in extremity, n of subjects: 6
  Petechiae, % of subjects: (9.4) %
  Petechiae, n of subjects: 6
  Platelet count increased, % of subjects: (9.4) %
  Platelet count increased, n of subjects: 6
  Serious TEAE, % of subjects: (7.8) %
  Serious TEAE, n of subjects: 5
  Serious treatment-related TEAEs, % of subjects: (3.1) %
  Serious treatment-related TEAEs, n of subjects: 2
  Severe (grade 3-4) TEAEs, % of subjects: (25.0) %
  Severe (grade 3-4) TEAEs, n of subjects: 16
  Somnolence, % of subjects: (3.1) %
  Somnolence, n of subjects: 2
  Suspected drug-related AEs, % of subjects: (64.1) %
  Suspected drug-related AEs, n of subjects: 41
  Upper respiratory tract infection, % of subjects: (9.4) %
  Upper respiratory tract infection, n of subjects: 6
  Vomiting, % of subjects: (10.0) %
  Vomiting, n of subjects: 7
  Withdrawal due to TEAE, % of subjects: (10.9) %
  Withdrawal due to TEAE, n of subjects: 7
[3]
  Abdominal pain upper, % of subjects: (15.0) %
  Abdominal pain upper, n of subjects: 3
  Any Serious TEAE, n (%) of subjects: 1 (5.0) n (%)
  Any TEAE, % of subjects: (100.0) %
  Any TEAE, n of subjects: 20
  Arthralgia, % of subjects: (20.0) %
  Arthralgia, n of subjects: 4
  Asthenia, % of subjects: (5.0) %
  Asthenia, n of subjects: 1
  Back pain, % of subjects: (15.0) %
  Back pain, n of subjects: 3
  Constipation, n of subjects: 0
  Contusion, % of subjects: (30.0) %
  Contusion, n of subjects: 6
  Cough, % of subjects: (10.0) %
  Cough, n of subjects: 2
  Deaths, n of subjects: 0
  Diarrhoea, % of subjects: (25.0) %
  Diarrhoea, n of subjects: 5
  Dizziness, % of subjects: (15.0) %
  Dizziness, n of subjects: 3
  Dose interruption due to TEAE, % of subjects: (10.0) %
  Dose interruption due to TEAE, n of subjects: 2
  Dyspnoea, % of subjects: (5.0) %
  Dyspnoea, n of subjects: 1
  Ecchymosis, % of subjects: (10.0) %
  Ecchymosis, n of subjects: 2
  Epistaxis, % of subjects: (40.0) %
  Epistaxis, n of subjects: 8
  Fatigue, % of subjects: (35.0) %
  Fatigue, n of subjects: 7
  Gingival bleeding, % of subjects: (20.0) %
  Gingival bleeding, n of subjects: 4
  Headache, % of subjects: (40.0) %
  Headache, n of subjects: 8
  Insomnia, % of subjects: (5.0) %
  Insomnia, n of subjects: 1
  Migraine, % of subjects: (10.0) %
  Migraine, n of subjects: 2
  Mouth haemorrhage, % of subjects: (10.0) %
  Mouth haemorrhage, n of subjects: 2
  Nausea, % of subjects: (20.0) %
  Nausea, n of subjects: 4
  Pain in extremity, % of subjects: (10.0) %
  Pain in extremity, n of subjects: 2
  Petechiae, % of subjects: (10.0) %
  Petechiae, n of subjects: 2
  Platelet count increased, % of subjects: (10.0) %
  Platelet count increased, n of subjects: 2
  Serious TEAE Cerebrovascular accident, n (%) of subjects: 1 (5.0) n (%)
  Serious TEAE Chest pain, n (%) of subjects: 1 (5.0) n (%)
  Serious TEAE Diarrhoea, n (%) of subjects: 1 (5.0) n (%)
  Serious TEAE Haemorrhage intracranial, n (%) of subjects: 0 n (%)
  Serious TEAE Lethargy, n (%) of subjects: 0 n (%)
  Serious TEAE Mitral valve incompetence, n (%) of subjects: 1 (5.0) n (%)
  Serious TEAE Myocardial infarction, n (%) of subjects: 0 n (%)
  Serious TEAE Nausea, n (%) of subjects: 0 n (%)
  Serious TEAE Pelvic venous thrombosis, n (%) of subjects: 0 n (%)
  Serious TEAE Platelet count decreased, n (%) of subjects: 0 n (%)
  Serious TEAE Pneumonia, n (%) of subjects: 0 n (%)
  Serious TEAE Pyrexia, n (%) of subjects: 1 (5.0) n (%)
  Serious TEAE Thrombocytopenia, n (%) of subjects: 0 n (%)
  Serious TEAE Transient ischaemic attack, n (%) of subjects: 0 n (%)
  Serious TEAE Vomiting, n (%) of subjects: 1 (5.0) n (%)
  Serious TEAE, % of subjects: (5.0) %
  Serious TEAE, SOC Blood and lymphatic system disorders, n (%) of subjects: 0 n (%)
  Serious TEAE, SOC Cardiac disorders, n (%) of subjects: 1 (5.0) n (%)
  Serious TEAE, SOC Gastrointestinal disorders, n (%) of subjects: 1 (5.0) n (%)
  Serious TEAE, SOC General disorders and administration site conditions, n (%) of subjects: 1 (5.0) n (%)
  Serious TEAE, SOC Infections and infestations, n (%) of subjects: 0 n (%)
  Serious TEAE, SOC Investigations, n (%) of subjects: 0 n (%)
  Serious TEAE, SOC Nervous system disorders, n (%) of subjects: 1 (5.0) n (%)
  Serious TEAE, SOC Vascular disorders, n (%) of subjects: 0 n (%)
  Serious TEAE, n of subjects: 1
  Serious treatment-related TEAEs, n of subjects: 0
  Severe (grade 3-4) TEAEs, % of subjects: (35.0) %
  Severe (grade 3-4) TEAEs, n of subjects: 7
  Somnolence, % of subjects: (10.0) %
  Somnolence, n of subjects: 2
  Suspected drug-related AEs, % of subjects: (65.0) %
  Suspected drug-related AEs, n of subjects: 13
  Upper respiratory tract infection, % of subjects: (15.0) %
  Upper respiratory tract infection, n of subjects: 3
  Vomiting, % of subjects: (20.0) %
  Vomiting, n of subjects: 4
  Withdrawal due to TEAE, % of subjects: (10.0) %
  Withdrawal due to TEAE, n of subjects: 2
Both studies combined
  treated subjects with thromboembolic events: approximately 6%
Both studies combined, doses of 10 mg/day or higher
  subjects with thromboembolic events: 4 subjects
Combined studies
  subjects with TEAE possibly or probably treatment related: 64.1%
  subjects with TEAEs that led to interruption of study treatment: 8 subjects
  subjects with TEAEs that led to premature discontinuation of study treatment: Seven
Combined studies, 64 subjects
  subjects who experienced one or more TEAEs: 96.9%
[4]
  Epistaxis: 23.4%
  Fatigue: 34.4%
  Headache: 32.8%
  Vomiting: 10.9%
  arthralgia: 14.1%
  contusion: 18.8%
  diarrhea: 14.1%
  gingival bleeding: 10.9%
Combined studies, all
  serious TEAEs: 16 cases
  subjects reporting serious TEAEs: Five
During the study
  deaths: No deaths occurred
During this study
  neoplastic events of interest: Three
Lower ⅓ dose level group
  serious TEAEs: 1 cases
  subjects reporting serious TEAEs: 1 subjects
Middle ⅓ dose level group
  serious TEAEs: 9 cases
  subjects reporting serious TEAEs: 3 subjects
[5]
  serum ALT: 210 U/L
  serum AST: 143 U/L
[6]
  ALT: 421 U/L
  AST: 431 U/L
Upper ⅓ dose level group
  serious TEAEs: 6 cases
  subjects reporting serious TEAEs: 1 subjects
